Activity and Emax data for 6 compounds are collected here from publication PMC9713482, “Discovery of (R)-2-amino-3-triazolpropanoic acid derivatives as NMDA receptor glycine site agonists with GluN2 subunit-specific activity” (Frontiers in Chemistry, 2022).

Holding throughout (assay): cell-based
Experiment [1] addresses T1, GluN1/2C (Rattus norvegicus, UniProt P35439).
T1 construct: gene Grin1; full-length subunits co-expressed from cRNA (1:2) in Xenopus laevis oocytes; heterotetramer (human Q14957 was used only for modelling); with Glutamate receptor ionotropic, NMDA 2C
Details: species or system Xenopus laevis oocytes; two-electrode voltage-clamp recording of NMDA receptor agonist responses with 300 uM glutamate, relative to maximal glycine response. Particulars: Oocyte; 300 uM glutamate; read-out: % activation. On the procedure:
(§1) Oocytes were injected with cRNAs for GluN1 and GluN2 subunits at a 1:2 ratio, and incubated as previously described ([Hansen et al., 2013]). The injected oocytes were used for two-electrode voltage-clamp recordings at room temperature (21–23°C) after 2–4 days of expression. as previously described ([Hansen et al., 2013]). The holding potential was −40 mV in all recordings. The recording solution was comprised of (in mM) 90 NaCl, 1 KCl, 10 HEPES, 0.5 BaCl2 and 0.01 EDTA (pH 7.4). For experiments with GluN1/2A or GluN1/2B receptors, the oocytes were injected at least 10 min before recordings with 50 mM BAPTA (30–50 nL) to minimize use-dependent increases in response amplitudes ([Williams, 1993]). Compounds were dissolved as 20–100 mM stock solutions in DMSO, and DMSO concentrations were constant in all recording solutions and never exceeded 1%. GraphPad Prism (GraphPad Software, La Jolla, CA) was used to analyze agonist concentration-response data. Briefly, the data for each oocyte were fitted to the following Hill equation, I = Rmax/(1 + 10^((logEC50-log [A])*nH)). […] The pharmacological properties of analogues 13a-j and 16 were determined with two-electrode voltage-clamp recordings of responses from recombinant NMDA receptor subtypes (Table 1; Figure 4). Compound 13f was identified as agonist with lower maximal response relative to glycine (Rmax) at GluN1/2A (47%) and GluN1/2B (23%), but Rmax similar to glycine at GluN1/2C (94%) and GluN1/2D (96%).

For experiment [2], the target named is T2, GluN1/2B (Rattus norvegicus, UniProt P35439).
T2 construct: gene Grin1; full-length subunits co-expressed from cRNA (1:2) in Xenopus laevis oocytes; GluN2B ORF altered only silently; heterotetramer; with Glutamate receptor ionotropic, NMDA 2B
Details: species or system Xenopus laevis oocytes; two-electrode voltage-clamp recording of NMDA receptor agonist responses with 300 uM glutamate, relative to maximal glycine response. The settings on record: Oocyte; 300 uM glutamate; read-out: % activation. As for the experimental part:
as §1

Experiment [3] concerns the target T3, GluN1/2D (Rattus norvegicus, UniProt P35439).
T3 construct: gene Grin1; full-length subunits co-expressed from cRNA (1:2) in Xenopus laevis oocytes; heterotetramer; with Glutamate receptor ionotropic, NMDA 2D
Details: species or system Xenopus laevis oocytes; two-electrode voltage-clamp recording of NMDA receptor agonist responses with 300 uM glutamate, relative to maximal glycine response. Particulars: Oocyte; 300 uM glutamate; read-out: % activation. On the procedure: as §1

Another experiment addresses T4, GluN1/2A (Rattus norvegicus, UniProt P35439).
T4 construct: gene Grin1; full-length subunits co-expressed from cRNA (GluN1:GluN2 1:2) in Xenopus laevis oocytes; heterotetramer; glycine site in GluN1; with Glutamate receptor ionotropic, NMDA 2A
Details: species or system Xenopus laevis oocytes; Two-electrode voltage-clamp concentration-response of glycine-site agonists with saturating glutamate; efficacy relative to 100 uM glycine. Particulars: Oocyte; fitted maximum relative to 100 uM glycine, saturating glutamate; read-out: Rel. efficacy (%) / 99.6672727273 / 96.0542857143. The text has this:
(§2) For expression in Xenopus laevis oocytes purchased from Rob Weymouth (Xenopus 1, Dexter, MI), cDNAs encoding rat NMDA receptor subunits, GluN1-1a (Genbank accession number U11418 and U08261), GluN2A (D13211), GluN2B (U11419), GluN2C (M91563), and GluN2D (L31611), were used to produce cRNAs using the mMessage mMachine kit (Ambion, Life Technologies, Paisley, United Kingdom) according to the manufacturer’s protocol. The open reading frame of the GluN2B subunit was altered without changing the amino acid sequence to remove a termination site for the T7 RNA polymerase used to synthesize cRNA ([Hansen et al., 2014]). Oocytes were injected with cRNAs for GluN1 and GluN2 subunits at a 1:2 ratio, and incubated as previously described ([Hansen et al., 2013]). The injected oocytes were used for two-electrode […] recordings at room temperature (21–23°C) after 2–4 days of expression. as previously described ([Hansen et al., 2013]). The holding potential was −40 mV in all recordings. The recording solution was comprised of (in mM) 90 NaCl, 1 KCl, 10 HEPES, 0.5 BaCl2 and 0.01 EDTA (pH 7.4). For experiments with GluN1/2A or GluN1/2B receptors, the oocytes were injected at least 10 min before recordings with 50 mM BAPTA (30–50 nL) to minimize use-dependent increases in response amplitudes ([Williams, 1993]). Compounds were dissolved as 20–100 mM stock solutions in DMSO, and DMSO concentrations were constant in all recording solutions and never exceeded 1%. GraphPad Prism (GraphPad Software, La Jolla, CA) was used to analyze agonist concentration-response data. Briefly, the data for each oocyte were fitted to the following Hill equation, I = Rmax/(1 + 10^((logEC50-log [A])*nH)).

For experiment [4], the target named is T1, GluN1/2C. Details: species or system Xenopus laevis oocytes; Two-electrode voltage-clamp concentration-response of glycine-site agonists with saturating glutamate; efficacy relative to 100 uM glycine. Particulars: Oocyte; fitted maximum relative to 100 uM glycine, saturating glutamate; read-out: Rel. efficacy (%) / 100 / 111.08.
Excerpt: as §2

The target of experiment [5] is T2, GluN1/2B. Details: species or system Xenopus laevis oocytes; Two-electrode voltage-clamp concentration-response of glycine-site agonists with saturating glutamate; efficacy relative to 100 uM glycine. The settings on record: Oocyte; fitted maximum relative to 100 uM glycine, saturating glutamate; read-out: Rel. efficacy (%) / 100 / 100.0775.
Excerpt: as §2

For experiment [6], the target named is T3, GluN1/2D. Details: species or system Xenopus laevis oocytes; Two-electrode voltage-clamp concentration-response of glycine-site agonists with saturating glutamate; efficacy relative to 100 uM glycine. The settings on record: Oocyte; fitted maximum relative to 100 uM glycine, saturating glutamate; read-out: Rel. efficacy (%) / 100 / 92.671.
Excerpt: as §2

Take `N[C@H](Cn1cc(CCO)nn1)C(=O)O` [13a, (R)-2-Amino-3-(4-(2-hydroxyethyl)-1H-1,2,3-triazol-1-yl)propanoic acid]: the figures for the activity at 100 µM at GluN1/2C [1], at GluN1/2B [2] and at GluN1/2D [3] were 22%, 6.2% and 34%, respectively.
For the compound `CCCCc1cn(C[C@@H](N)C(=O)O)nn1` [13b, (R)-2-Amino-3-(4-butyl-1H-1,2,3-triazol-1-yl)propanoic acid], the results for the activity at 100 µM on GluN1/2C [1], on GluN1/2B [2] and on GluN1/2D [3] were 27%, 9.2% and 32%, respectively.
Regarding `N[C@H](Cn1cc(Cc2ccccc2)nn1)C(=O)O` [13c, (R)-2-Amino-3-(4-benzyl-1H-1,2,3-triazol-1-yl)propanoic acid], the activity at 100 µM at GluN1/2C [1] was determined as 12%; on GluN1/2D [3], 5.9%.
On to `Nc1ccc(-c2cn(C[C@@H](N)C(=O)O)nn2)cc1` [13f, (R)-2-Amino-3-(4-(4-aminophenyl)-1H-1,2,3-triazol-1-yl)propanoic acid], for which the Emax at GluN1/2A turned out to be 47.3%; on GluN1/2C [4], 93.9%; at GluN1/2B [5] it was 22.8%; on GluN1/2D [6], 96.5%.
For `N[C@H](Cn1cc(-c2cccnc2)nn1)C(=O)O` [13g, (R)-2-Amino-3-(4-(pyridin-3-yl)-1H-1,2,3-triazol-1-yl)propanoic acid] the same measures were 65.5%, 96.9%, 55.7% and 87.5%.
On the same counts, the results for `N[C@H](Cn1cc(-c2ccsc2)nn1)C(=O)O` [13i, (R)-2-Amino-3-(4-(thiophen-3-yl)-1H-1,2,3-triazol-1-yl)propanoic acid] are 56.4%, 81.9%, 46.3% and 81.8%.
